According to patent US20220009951A1, “TORSEMIDE PHOSPHATE PRODRUG, PREPARATION METHOD AND COMPOSITION THEREOF” (Shanghai Xunhe Pharmaceutical Technology Co. Ltd., priority 2019, published 2022):
Entries after “also recorded” stand apart in the source; their conditions may differ. Counter-ions that a name gives are not always drawn.

Tests used:
Male SD rats = assay: Comparison of diuretic effects (urine output of saline-loaded rats); type: in vivo, rat; settings: 30 mL/kg normal saline intragastrically, drug 10 mg/kg iv, urine collected for 4 h
Procedure: Comparison of Diuretic Effects:
Male SD rats (body weight 180±20 g) were divided into seven groups randomly, three rats a group, and each rat was administered intragastrically 30 mL/kg normal saline. After intragastric administration of normal saline, except the blank control group, each group was given one drug (10 mg/kg, iv, 1 mg/mL, formulation prescription: 0.5% methylcellulose), and the urination was collected for 4 hours.

[1] = Comparison of water solubility of different forms of samples
[2] = cited from earlier work
[3] = cited from earlier work; remark: listed apart in the source

Conclusion (water solubility class) [1]	Structure (SMILES)	Urine output (mL/kg, 4 h) (Male SD rats) [mL/kg]	pKa value [2]	solubility in 0.1 mol/L sodium hydroxide solution ([3]; 0.1 mol/L sodium hydroxide solution)	solubility in water ([3]; water)
–	Cc1cccc(Nc2ccncc2S(=O)(=O)N(COP(=O)([O-])[O-])C(=O)NC(C)C)c1.[Na+].[Na+] [Compound of formula Ia, disodium N-hydroxymethyl-torsemide phosphate]	121.6	–	–	–
soluble	Cc1cccc(Nc2ccncc2S(=O)(=O)N(COP(=O)(O)O)C(=O)NC(C)C)c1 [Compound of formula I, N-hydroxymethyl-torsemide phosphate]	105.4	–	–	–
–	Cc1cccc(Nc2ccncc2S(=O)(=O)N(COP(=O)([O-])[O-])C(=O)NC(C)C)c1.[K+].[K+] [Compound of formula Ib, dipotassium N-hydroxymethyl-torsemide phosphate]	116.8	–	–	–
easily soluble	Cc1cccc(Nc2ccncc2S(=O)(=O)N(COP(=O)(O)O)C(=O)NC(C)C)c1 [Compound of formula Id, N-hydroxymethyl-torsemide phosphate tri-n-butylammonium salt]	105.6	–	–	–
–	Cc1cccc(Nc2ccncc2S(=O)(=O)NC(=O)NC(C)C)c1 [Torsemide, 1-[4-(3-methylphenyl)aminopyridin-3-yl]sulfonyl-3-isopropylurea]	100.3	6.44	slightly soluble	almost insoluble; also recorded: very slightly soluble
easily soluble	Cc1cccc(Nc2ccncc2S(=O)(=O)N(COP(=O)(O)O)C(=O)NC(C)C)c1 [Compound of formula Ic, N-hydroxymethyl-torsemide phosphate triethylammonium salt]	103.4	–	–	–
